Key:
[1] = target: T1, thromboxane synthetase enzyme (Rattus norvegicus, UniProt P49430); test: inhibition of thromboxane (TXA2) formation, TXB2 determined by direct radioimmunoassay in washed rat platelets; type: cell-based, Okamoto-Aoki spontaneously hypertensive rats (SHR); conditions: Dose 10^-4 M; SHR platelets, 10 minutes at 37° C.
T1 construct: endogenous in cells; host or cells: washed platelets from arterial blood of Okamoto-Aoki spontaneously hypertensive rats (Taconic Farms, Germantown, NY)
T1 sequence (P49430 1-533): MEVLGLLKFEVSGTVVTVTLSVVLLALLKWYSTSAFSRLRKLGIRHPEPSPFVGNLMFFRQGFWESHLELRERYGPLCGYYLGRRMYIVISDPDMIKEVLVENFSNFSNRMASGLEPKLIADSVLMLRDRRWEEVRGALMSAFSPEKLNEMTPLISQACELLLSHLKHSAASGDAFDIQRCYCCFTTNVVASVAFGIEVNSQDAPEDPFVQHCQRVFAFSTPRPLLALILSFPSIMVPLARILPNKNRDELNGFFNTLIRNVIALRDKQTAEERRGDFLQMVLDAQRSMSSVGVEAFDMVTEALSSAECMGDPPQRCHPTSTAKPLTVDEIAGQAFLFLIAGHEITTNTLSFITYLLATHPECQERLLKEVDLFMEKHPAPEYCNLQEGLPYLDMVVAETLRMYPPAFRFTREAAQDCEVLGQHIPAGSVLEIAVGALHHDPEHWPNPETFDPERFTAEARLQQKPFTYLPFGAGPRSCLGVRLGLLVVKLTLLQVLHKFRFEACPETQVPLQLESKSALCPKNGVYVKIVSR
Method: The inhibition of thromboxane (TXA2) formation was studied by determining the concentration of thromboxane B2 (TXB2), the stable hydrolysis product of TXA2.
Under urethan anesthesia, […] of arterial blood was collected in one ml of 3.2% sodium citrate in a polystyrene tube from Okamoto-Aoki spontaneously hypertensive rats (SHR) (Taconic Farms, Germantown, NY) between 19 and 24 weeks in age. The blood was diluted with 3 ml cold saline and centrifuged at room temperature for 15 minutes at 460 xg. The platelet rich plasma (PRP) was separated. The platelets were isolated by centrifuging the PRP for 10 minutes at 1060 xg and were washed in 4 ml cold oxygenated Krebs phosphate buffer, pH 7.4. The chilled platelets recovered from centrifuging at 800 xg for 10 minutes were resuspended in oxygenated Krebs phosphate buffer and diluted to contain 4.5-6.0×10^4 platelets/μl. Assay samples, prepared on ice, contained 200 μl platelet suspension, 50 μl saline, and 50 μl vehicle or drug under study (OKY-1581, UK-37248-01, 1-benzylimidazole, or indomethacin). The samples were incubated for 10 minutes at 37° C. in a metabolic shaker. The reaction was terminated by immersing the tubes in an ice bath and adding 50 μl of 0.5M citric acid. The samples were centrifuged for 10 minutes in a refrigerated centrifuge and the supernatants thus obtained were decanted and stored at -20° C. The TXB2 content for each sample was determined by a direct radioimmunoassay (RIA) utilizing a TXB2 specific RIA kit purchased from New England Nuclear, Boston, Mass. and expressed as pg TXB2 formed minute^-1 sample^-1, from which the percent inhibition of TXB2 formation was calculated.

[2] = hypotensive activity in spontaneously hypertensive rats, mean arterial blood pressure (method of Chan and Poorvin); type: in vivo; conditions: gavage, 100 mg/kg or less, two doses 24 hours apart; measured 28 hours after initial dose; average MABP of rats used 160±1.5 mm Hg; (no. of rats) in parentheses
Method: The novel compounds of the present invention also are active antihypertensive agents and were tested for hypotensive activity by the method of P. S. Chan and D. Poorvin, Clinical and Experimental Hypertension, 1 (6), 817-830 (1979). Male, 16 week old, spontaneously hypertensive rats of the Okamoto strain, from Taconic Farms, Germantown, N.Y., having an average mean arterial blood pressure of 160±1.5 mm of mercury are used in the test. One to three rats are used per test compound. A rat is dosed by gavage with a test compound, suspended in 2% pre-boiled starch at a concentration of 50 mg/ml, at a dose of 100 mg/kg of body weight or less with 0.9% sodium chloride loading at a dose of 25 ml/kg of body weight. A second identical dose of the test compound without sodium chloride loading is given 24 hours later. At 28 hours after the initial dose the mean arterial blood pressure is measured by the method of Chan and Poorvin vide supra. The procedure is repeated in a second and third rat when necessary.

Structure (SMILES) | inhibition at 100 µM [1] [%] | MABP in mm Hg [2] [mm Hg]
Cc1nccn1CCCNC(=O)c1cccnc1Cl [2-Chloro-N-[3-(2-methyl-1H-imidazol-1-yl)propyl]-3-pyridinecarboxamide] | 38 | –
O=C(NCCCCn1ccnc1)c1cccnc1Cl [2-Chloro-N--[4-(1H--imidazol-1-yl)butyl]-3-pyridinecarboxamide] | 90 | –
O=C(NCCCCn1ccnc1)c1ccccn1.O=C(O)/C=C/C(=O)O [N-[4-(1H-Imidazol-1-yl)butyl]-2-pyridinecarboxamide, fumarate] | 82 | 116
O=C(NCCCn1ccnc1-c1ccccc1)c1ccc(Cl)nc1 [6-Chloro-N-[3-(2-phenyl-1H-imidazol-1-yl)propyl]-3-pyridinecarboxamide] | 56 | –
O=C(NCCCn1ccnc1)c1cccnc1Cl [2-Chloro-N--[3-(1H--imidazol-1-yl)propyl]-3-pyridinecarboxamide] | 58 | –
O=C(NCCCCn1ccnc1)c1ccc(Cl)nc1 [6-Chloro-N--[4-(1H--imidazol-1-yl)butyl]-3-pyridinecarboxamide] | 94 | –
CC(CCNC(=O)c1ccc(Cl)nc1)n1ccnc1 (stereo not shown) [6-Chloro-N-[3-(1H-imidazol-1-yl)butyl]-3-pyridinecarboxamide] | 98 | 111
Cc1cn(CCCNC(=O)c2ccccn2)cn1 [N--[3-(4-Methyl-1H--imidazol-1-yl)propyl]-2-pyridinecarboxamide] | 84 | 140
CC(CNC(=O)c1ccc(Cl)nc1)Cn1ccnc1 (stereo not shown) [6-Chloro-N-[3-(1H-imidazol-1-yl)-2-methylpropyl]-3-pyridinecarboxamide] | 98 | 129
O=C(NCCCn1ccnc1)c1cccnc1 [N--[3-(1H--Imidazol-1-yl)propyl]-3-pyridinecarboxamide] | 83 | 138
Cc1nccn1CCCNC(=O)c1ccc(Cl)nc1 [6-Chloro-N-[3-(2-methyl-1H-imidazol-1-yl)propyl]-3-pyridinecarboxamide] | 44 | –
Cc1cn(CCCNC(=O)c2cccnc2Cl)cn1 [2-Chloro-N--[3-(4-methyl-1H--imidazol-1-yl)propyl]-3-pyridinecarboxamide] | 50 | –
Cc1cn(CCCNC(=O)c2ccc(Cl)nc2)cn1 [6-Chloro-N-[3-(4-methyl-1H-imidazol-1-yl)propyl]-3-pyridinecarboxamide] | 86 | 139
Cc1cn(CCCNC(=O)c2cccnc2)cn1 [N--[3-(4-Methyl-1H--imidazol-1-yl)propyl]-3-pyridinecarboxamide] | 50 | 123
O=C(NCCCn1ccnc1-c1ccccc1)c1ccccn1 [N-[3-(2-Phenyl-1H-imidazol-1-yl)propyl]-2-pyridinecarboxamide] | 30 | –
O=C(NCCCn1cncn1)c1ccc(Cl)nc1 [6-Chloro-N-[3-(1H-1,2,4-triazol-1-yl)propyl]-3-pyridinecarboxamide] | 67 | 140
O=C(NCCCn1ccnc1)c1ccc(Cl)nc1 [6-Chloro-N--[3-(1H--imidazol-1-yl)propyl]-3-pyridinecarboxamide] | 88 | 132
O=C(NCCCn1ccnc1)c1ccccn1 [N-[3-(1H-Imidazol-1-yl)propyl]-2-pyridinecarboxamide] | 59 | 127

Reference: US4555519A, “Thromboxane synthetase enzyme inhibiting N-[(1H-imidazol-1-yl) and (1H-1,2,4-triazol-1-yl)alkyl]pyridinecarboxamides” (American Cyanamid Company, priority 1984, dated 1985)
